Data on 19 molecules can be found in publication PMC5879447, “Discovery of Novel Bovine Viral Diarrhea Inhibitors Using Structure-Based Virtual Screening on the Envelope Protein E2” (Frontiers in Chemistry, 2018).

As usually defined, the CC50 is the concentration giving 50% cytotoxicity. A word on the IC50: it is the concentration that inhibits the measured activity by half.

Data set [1] deals with MDBK cells. The data set can be described thus: Cytotoxicity assay (cell viability, crystal violet staining). The class given is cell-based, Bos taurus. The method, then:
(§1) MDBK cells (Bos taurus kidney, ATCC CCL-22) were purchased from ATCC and grown in Dulbecso's modified Eagle medium (DMEM) supplemented with 10% fetal bovine serum and antibiotics under 5% CO2 at 37°C. For infections, cells were cultivated in DMEM supplemented with 2% Horse serum and antibiotics under 5% CO2 at 37°C.
(§2) Cell viability assays were performed on confluent cell cultures in 96 well plates (~15,000 cells per well). For each compound, cells were treated with serial dilutions of the compound in quadruplicates and incubated at 37°C for 3 days. Then, cell viability was measured using crystal violet staining. Briefly, cells were fixed with 10% formaldehyde, stained with crystal violet solution (20% Ethanol, 0.1% Crystal Violet), and after washing, the absorbance at 595 nm was recorded for each well in a spectrophotometer. Assays were conducted at least in duplicates, and the cytotoxic concentration 50 (CC50) was estimated by a nonlinear regression fitting of five data points as the compound concentration necessary to reduce cell viability by 50% compared to control non-treated cells.

Data set [2] concerns MDBK cells. Further details: method as in Pascual et al. (2018). Conditions: ref Pascual et al. (2018), cited from earlier work.
The test system of data set [3] is BVDV cell entry. Also on record: method as in Pascual et al., 2018. The conditions noted are these: previously shown; ref Pascual et al., 2018; cited from earlier work.
Data set [4] has as its system BVDV. Further details: method as in Pascual et al. (2018). The conditions noted are these: MDBK cells infected with cpBVDV/Npro GFP; ref Pascual et al. (2018); cited from earlier work.
Data set [5] can be described thus: Cytotoxicity assay (cell viability, crystal violet staining). It counts as cell-based, Bos taurus. The conditions noted are these: cattle (Bos taurus), MDBK cells, 3 days at 37°C, mean and SD of at least two independent experiments. The protocol:
as §1, §2

Data set [6] concerns BVDV. Kind of data set: Reporter-based assay for antiviral activity (cpBVDV/Npro GFP, flow cytometry). The class given is cell-based, Bovine viral diarrhea virus. The conditions noted are these: read-out: IC50 BVDV. The protocol:
Antiviral activity was evaluated in a reporter-based assay using a recombinant virus expressing GFP, cpBVDV/Npro GFP (Pascual et al., [2018]). MDBK cells were seeded onto 24 well plates, infected with cpBVDV/Npro GFP at a multiplicity of infection of 0.1 in the presence of increasing concentrations of compounds. At 48 h post-infection cells were thoroughly washed, lifted with trypsin 0.05% and fixed using 4% paraformaldehyde in PBS. The fluorescence signal was measured using a flow cytometer (CyFlow® Space, Partec) at a detection spectrum of 488 nm. Data were analyzed in the FlowJo 7.6.2 software package. The inhibitory concentrations 50 (IC50s) for the compounds tested in the assay were calculated from curves constructed by plotting the percentage of infected cells versus the concentration of compound as the compound concentration necessary to reduce the number of infected cells by 50% compared to control non-treated cells.
First, we assayed selected compounds for cytotoxicity in cultured cells. […] The remainder of the compounds were evaluated for antiviral activity in a reporter-based assay using a recombinant BVDV virus carrying GFP on its genome to infect MDBK cells (Pascual et al., [2018]). Expression of GFP induced by BVDV infection was measured 2 days after infection using flow cytometry. Inhibition of BVDV infection was assessed by comparing the number of GFP positive cells in non-treated control cells and in cells treated with increasing amounts of compound.
Background: A flow cytometer gives signals particle by particle.

[7] abbreviates: MDBK cells (bovine kidney, ATCC CCL-22).
The mark [8] stands for this setting: Bovine viral diarrhea virus isolates and strains, MDBK, 48 h.

Like-named read-outs stand apart in the source and are kept apart here. Some results are limits rather than exact numbers.

Consider “4-chloro-N-(isoxazol-5-yl)benzamide [Compound 15]”, for which, in data set [1], the CC50 is more than 50 µM. In the case of `OCCCc1nc2ccccc2[nH]1` [BI03], in data set [2], the “cytotoxicity at 50 μM” value is “no cytotoxicity was detected” and the cytotoxic concentration (CC50) is more than 200 µM. Moreover, the “block of BVDV cell entry” value in data set [3] is on record as “specifically block BVDV cell entry”. In addition, the IC50 in data set [4] was 17.6 ± 6.4 µM. As for `c1ccc(CN2CCN(c3cccc4[nH]cnc34)CC2)cc1` [Compound 1], the CC50 at 3 days in data set [5] (setting [7]) was more than 50 µM. With `C1=C(c2nc3ccccc3o2)CCN1Cc1ncc[nH]1` [Compound 2], in data set [6] (setting [8]), the IC50 stood at 44.3 ± 10.3 µM. This molecule also showed a CC50 at 3 days in data set [5] (setting [7]) of more than 50 µM. For the molecule `NNC(=O)c1ccccc1NC(=O)c1ccccc1` [Compound 3], the CC50 at 3 days in data set [5] was more than 50 µM. For `C[C@@H](Sc1nnc(-c2cccnc2)n1N)C(=O)Nc1cccc(C(F)(F)F)c1` [Compound 4], the IC50 in data set [6] (setting [8]) was 30.1 ± 2.9 µM. Moreover, the half-maximal cytotoxic concentration (CC50) at 3 days in data set [5] (setting [7]) was more than 50 µM. Moreover, the “cytotoxicity at 50 μM” value in data set [1] (MDBK cells, 50 μM) is recorded as “no cytotoxicity was detected”. In data set [5] (setting [7]), `Cc1cccc(Cl)c1NC(=N)NC(=N)N` [Compound 5] had a cytotoxic concentration (CC50) at 3 days of more than 50 µM. In data set [5] (setting [7]), `O=C(NNC(=O)c1cc2cc(OC(F)(F)F)ccc2[nH]1)c1cccc(C(F)(F)F)c1` [Compound 6] came in with a CC50 at 3 days of 7.2 ± 1.3 µM. Further, the “cytotoxicity in cultured cells” value in data set [1] (MDBK cells, compound discarded from further analysis) is reported as “high toxicity”. As for `O=C(NCc1ccc2c(c1)OCO2)Oc1ccccc1` [Compound 7], the CC50 at 3 days in data set [5] was more than 50 µM. Take `CCOC(=O)c1ccc2nc(NC(=O)c3cccc(Cl)c3)sc2c1` [Compound 8]: in data set [6] (setting [8]), the IC50 is 20.2 ± 3.6 µM. Besides, the half-maximal cytotoxic concentration (CC50) at 3 days in data set [5] (setting [7]) was more than 50 µM. Also, the “cytotoxicity at 50 μM” value in data set [1] (MDBK cells, 50 μM) is given as “no cytotoxicity was detected”. Regarding `CS/C(=N\S(=O)(=O)c1ccc(-n2nc(C(F)(F)F)cc2-c2cccs2)cc1)N1CCCC1` [Compound 9], the CC50 at 3 days in data set [5] (setting [7]) is more than 50 µM. As to `COc1ccccc1NC(=O)Cc1nnc(SCC(=O)Nc2cc(Cl)ccc2C)n1C` [Compound 10], in data set [5] (setting [7]), the CC50 at 3 days was more than 50 µM. With `N=C(N)Nc1nc2ccccc2[nH]1` [Compound 12, 2-Guanidinobenzimidazole], in data set [6] (setting [8]), the IC50 turned out to be 44.4 ± 11.5 µM. The cytotoxic concentration (CC50) at 3 days in data set [5] (setting [7]) is more than 50 µM. `O=C(OCCO)c1cccc2c1-c1ccccc1C2=O` [Compound 13] showed a cytotoxic concentration (CC50) at 3 days in data set [5] (setting [7]) of 61.5 ± 1.4 µM. Take `Cc1cc(NC(=O)CCC(=O)O)no1` [Compound 14, 4-((5-methylisoxazol-3-yl)amino)-4-oxobutanoic acid]: the CC50 at 3 days in data set [5] (setting [7]) was more than 50 µM.

In turn, `O=C(Nc1ccc(OC(F)(F)F)cc1)c1ccco1` [Compound 16, N-(4-(trifluoromethoxy)phenyl)furan-2-carboxamide] displayed a CC50 at 3 days in data set [5] (setting [7]) of 49.8 ± 1.5 µM. In data set [5] (setting [7]), `Cc1ccc(CNC(=N)NC(=N)N)cc1` [Compound 17] returned a 50% cytotoxic concentration (CC50) at 3 days of more than 50 µM. Consider `COc1ccc(C(=O)Nc2cc(-c3ccccc3)sc2C(N)=O)cc1OC` [PTC12], for which, in data set [2], the “cytotoxicity at 50 μM” value is “no cytotoxicity was detected” and the CC50 was 89.5 ± 1.1 µM. Also, in data set [3], the “block of BVDV cell entry” value is recorded as “specifically block BVDV cell entry”. Also, the concentration for half-maximal inhibition (IC50) in data set [4] was 0.3 ± 0.1 µM. Turning to “(E)-2-(4-(dimethylamino)benzylidene)-N-(4-(trifluoromethyl)phenyl)hydrazinecarbothioamide [Compound 11]”, the IC50 in data set [6] (MDBK cells infected with cpBVDV/Npro GFP, MOI 0.1, 48 h post-infection, mean and SD of at least two independent experiments, NA = assayed but not active) turned out to be 23.9 ± 7.9 µM. In data set [1], the CC50 is more than 50 µM and the “cytotoxicity at 50 μM” value is given as “no cytotoxicity was detected”.
